In test [1] the target is T1, CETP (enriched CETP fraction obtained from human plasma) (Homo sapiens, UniProt P11597).
T1 construct: CETP is obtained in partially purified form from human plasma; from tissue; host or cells: human plasma (d>1.21 g/ml bottom fraction; Phenyl-Sepharose, CM-Sepharose, Mono Q)
T1 sequence (P11597 18-493): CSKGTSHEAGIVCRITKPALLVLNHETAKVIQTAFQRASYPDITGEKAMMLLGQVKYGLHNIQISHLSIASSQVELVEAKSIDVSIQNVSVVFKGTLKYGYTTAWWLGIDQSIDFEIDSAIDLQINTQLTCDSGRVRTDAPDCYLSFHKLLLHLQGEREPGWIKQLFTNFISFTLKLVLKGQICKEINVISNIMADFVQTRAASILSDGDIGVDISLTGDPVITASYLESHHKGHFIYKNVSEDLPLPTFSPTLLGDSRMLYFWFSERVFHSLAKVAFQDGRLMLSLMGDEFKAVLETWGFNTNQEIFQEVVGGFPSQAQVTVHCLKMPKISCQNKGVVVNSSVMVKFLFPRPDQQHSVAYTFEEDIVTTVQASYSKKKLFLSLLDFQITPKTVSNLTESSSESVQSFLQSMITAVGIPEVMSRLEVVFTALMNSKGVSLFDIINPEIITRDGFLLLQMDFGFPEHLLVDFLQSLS
Kind of test: CETP fluorescence test with enriched CETP. The format is biochemical. Conditions: 37° C., 4 hours, CE transfer between liposomes. The procedure:
(§1) CETP is obtained in partially purified form from human plasma by differential centrifugation and column chromatography and used for the test. To this end, human plasma is adjusted to a density of 1.21 g per ml using NaBr and centrifuged at 4° C. at 50 000 rpm for 18 h. The bottom fraction (d>1.21 g/ml) is applied to a Sephadex® Phenyl-Sepharose 4B (Pharmacia) column, washed with 0.15 M NaCl/0.001 M tris-HCl pH 7.4 and then eluted with distilled water. The CETP-active fractions are pooled, dialyzed against 50 mM sodium acetate pH 4.5 and applied to a CM-Sepharose® column (Pharmacia). The mixture is then eluted using a linear gradient (0-1 M NaCl). The pooled CETP fractions are dialyzed against 10 mM tris/HCl pH 7.4 and then further purified by chromatography on a Mono Q® column (Pharmacia).
Measurement of the CETP-catalyzed transfer of a fluorescent cholesterol ester between liposomes [modified according to the procedure of Bisgaier et al., J. Lipid Res. 34, 1625 (1993)]: […]
The change in the fluorescence at 485/535 nm is a measure of the CE transfer; the inhibition of the transfer in comparison to the control batch without substance is determined. […]

Another test has as its target T2, CETP in human plasma (Homo sapiens, UniProt P11597).
T2 construct: tissue Sigma P9523; host or cells: human plasma (purchased, unfractionated)
T2 sequence (P11597 18-493): T1 sequence (P11597 18-493)
Description: CETP fluorescence test with human plasma. The format is biochemical. Conditions: 86% v/v human plasma, 37° C., 24 h. Here is the method:
For the production of the donor liposomes, 1 mg of cholesteryl 4,4-difluoro-5,7-dimethyl-4-bora-3a,4a-diaza-s-indacene-3-dodecanoate (cholesteryl BODIPY® FL C1-2, Molecular Probes) is dissolved in 600 μl of dioxane with 5.35 mg of triolein and 6.67 mg of phosphatidylcholine with gentle warming in an ultrasonic bath and this solution is added very slowly with ultrasonication to 63 ml of 50 mM tris/HCl, 150 mM NaCl, 2 mM EDTA buffer pH 7.3 at room temperature. The suspension is then ultrasonicated under an N2 atmosphere for 30 minutes in the Branson ultrasonic bath at about 50 watts, the temperature being kept at about 20° C.
6 μl (12% v/v) of donor liposomes and 1 μl (2% v/v) of a solution of the substance to be investigated in DMSO are added to 42 μl (86% v/v) of human plasma (Sigma P9523), and the mixture is incubated at 37° C. for 24 h.
The change in the fluorescence at 510/520 nm (gap width 2.5 nm) is a measure of the CE transfer; the inhibition of the transfer in comparison to the control batch without substance is determined. […]

Test [2] has as its target T3, CETP (Homo sapiens, UniProt P11597).
T3 sequence (P11597 18-493): T1 sequence (P11597 18-493)
Kind of test: CETP-SPA test. The format is biochemical. Further details: CETP is obtained in partially purified form from human plasma; from tissue; host or cells: human plasma (d>1.21 g/ml bottom fraction; Phenyl-Sepharose, CM-Sepharose, Mono Q). The settings on record: transfer of 3H-cholesterol ester from human HDL to biotinylated LDL, 37° C., 18 h. The procedure:
as §1
50 ml of fresh human EDTA plasma is adjusted to a density of 1.12 using NaBr and centrifuged at 4° C. in a Ty 65 rotor at 50 000 rpm for 18 h. The upper phase is used for the obtainment of cold LDL. […]
For testing of the CETP activity, the transfer of ^3H-cholesterol ester from human HD lipoproteins to biotinylated LD lipoproteins is measured. The reaction is ended by addition of streptavidin-SPA® beads (Amersham) and the transferred radioactivity is determined directly in a liquid scintillation counter. […]

For test [3], the target named is T3, CETP. Description: Ex vivo activity on transgenic hCETP mice (CETP activity in the serum). Further details: from tissue; host or cells: serum of transgenic hCETP mice (host Mus musculus) after oral dosing. Conditions: mouse, 3 mg/kg oral, cholesteryl ester transport. The procedure:
10 μl of buffer and 2 μl of serum are added to 80 μl of test mix, and the mixture is incubated at 37° C. for 4 h.
The change in the fluorescence at 485/535 nm is a measure for the CE transfer; the inhibition of the transfer in comparison to the control batch without substance is determined.
To test for CETP-inhibitory activity, the substances are administered orally using a stomach tube to transgenic hCETP mice bred in-house [Dinchuk et al. BBA 1295-301 (1995)]. To this end, male animals are randomly assigned to groups having an equal number of animals, as a rule n=4, one day before the start of the experiment. Before administration of the substance, blood is taken from each mouse by puncture of the retro-orbital venous plexus for the determination of its basal CETP activity in the serum (T1). The test substance is then administered to the animals using the stomach tube. […]
After termination of the clotting, the blood samples are centrifuged and the serum is removed by pipette. For the determination of the CETP activity, the cholesteryl ester transport over 4 h is determined. […]
The differences in the cholesteryl ester transport [pM CE/h (T2)−pM CE/h (T1)] are calculated for each animal and averaged in the groups. […]

Read-outs that look alike come from different tables or passages of the source.

Usually IC50 stands for the concentration needed to halve the response being measured. Read a low IC50 as higher potency. For the molecule `O[C@H]1CC2(CC2)Cc2nc(C3CCCC3)c([C@@H](F)c3ccc(C(F)(F)F)cc3)c(C3CCCC3)c21` [Example 1], the concentration for half-maximal inhibition (IC50) in test [1] is 15 nM; at CETP in human plasma, 40 nM; against CETP [2], 24 nM.

As to `O[C@H]1CC2(CC2)Cc2nc(C3CCCC3)c([C@@H](F)c3ccc(C(F)(F)F)cc3)c(C3CCCCC3)c21` [Example 1], the IC50 in test [1] turned out to be 17 nM; on CETP in human plasma, 80 nM; at CETP [2], 32 nM. Moreover, the inhibition at 3 mg/kg turned out to be 74% on CETP [3] (serum taken 16 h after administration, read-out: % inhibition at 3 mg/kg 16 h) and 66% at CETP [3] (serum taken 24 h after administration, read-out: % inhibition at 3 mg/kg 24 h).
